The subject of assay [1] is IL-17 production, human PBMC cells. The assay can be described thus: IL-17 production assay using human PBMC. The class given is cell-based. Particulars: Homo sapiens, PBMC, 72 h, human PBMC stimulated by cytostim for 3 days, IL-17 ELISA of supernatant. An outline of the steps:
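Cryopreserved human PBMCs, 1×10^5 per well in TexMACS, were treated with compound or vehicle (<0.5% DMSO) and stimulated with Cytostim (10 μL/mL) for 3 days at 37 °C. Supernatant IL-17 was measured by ELISA. IC50 was taken from concentration versus percent inhibition.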

The target in another assay is T1, RORγ LBD-GST tagged (Homo sapiens, UniProt P51449).
T1 construct: RORγ LBD-GST tagged (Cat No. RORC-114H, Creative Biomart); purchased Creative Biomart RORC-114H
T1 sequence (P51449 269-508 limits assumed): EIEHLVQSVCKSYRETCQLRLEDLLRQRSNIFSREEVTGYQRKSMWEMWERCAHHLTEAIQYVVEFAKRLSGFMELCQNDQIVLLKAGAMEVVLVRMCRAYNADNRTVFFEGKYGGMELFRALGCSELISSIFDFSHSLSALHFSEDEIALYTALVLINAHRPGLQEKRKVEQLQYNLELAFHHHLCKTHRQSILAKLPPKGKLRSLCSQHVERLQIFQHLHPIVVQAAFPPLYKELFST
Kind of assay: LanthaScreen TR-FRET RORγ coactivator assay. The class given is biochemical. Particulars: Fluorescein-D22 coactivator peptide, 1 hour room temperature. An outline of the steps: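 GST-tagged RORγ LBD (25 ng/reaction) was incubated in coregulator buffer D with 5 mM DTT and compound (top 3 μM, 7-fold steps, 7 doses), then with a mix containing 0.6 μM fluorescein-D22 peptide and 8 nM Tb anti-GST antibody. After 1 h at room temperature in the dark, 520/495 nm TR-FRET was read. IC50 came from log concentration versus percent inhibition.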

Each structure is given as a SMILES string.

As to `CCS(=O)(=O)c1ccc(Cc2nc3c(Cl)c(N4CCC(F)(F)CC4)c(Cl)cc3[nH]2)cc1` [Example 125, 4,6-dichloro-5-(4,4-difluoropiperidin-1-yl)-2-(4-(ethylsulfonyl)benzyl)-1H-benzo[d]imidazole], the IC50 in assay [1] is 0.047 µM; against RORγ LBD-GST tagged, 0.059 µM.

As for `CCS(=O)(=O)c1ccc(C(CO)c2nc3cc(Cl)c(N4CCC(F)(F)CC4)c(Cl)c3[nH]2)cc1` (stereo not drawn) [Example 126, 2-(5,7-dichloro-6-(4,4-difluoropiperidin-1-yl)-1H-benzo[d]imidazol-2-yl)-2-(4-(ethylsulfonyl)phenyl)ethanol], the figures for the IC50 (in assay [1]; against RORγ LBD-GST tagged) were 0.008 µM and 0.135 µM, respectively.

Consider `O=S(=O)(CC1CC1)c1ccc(Cc2nc3cc(Cl)c(N4CCC(F)(F)CC4)c(Cl)c3[nH]2)cc1` [Example 127, 5,7-dichloro-2-(4-((cyclopropylmethyl)sulfonyl)benzyl)-6-(4,4-difluoropiperidin-1-yl)-1H-benzo[d]imidazole], for which the IC50 in assay [1] came out at 0.013 µM; at RORγ LBD-GST tagged, 0.22 µM.

With `NCC(c1ccc(S(=O)(=O)CC2CC2)cc1)c1nc2ccc(-c3ccccc3OC(F)F)c(Cl)c2[nH]1` (stereo not drawn) [Example 128, 2-(7-chloro-6-(2-(difluoromethoxy)phenyl)-1H-benzo[d]imidazol-2-yl)-2-(4-((cyclopropylmethyl)sulfonyl)phenyl)ethanamine], the IC50 in assay [1] is 0.091 µM; against RORγ LBD-GST tagged it was 0.006 µM.

On to `CC(=O)NCC(c1ccc(S(=O)(=O)CC2CC2)cc1)c1nc2cc(Cl)c(-c3ccccc3OC(F)F)cc2[nH]1` (stereo not drawn) [Example 129, N-(2-(5-chloro-6-(2-(difluoromethoxy)phenyl)-1H-benzo[d]imidazol-2-yl)-2-(4-((cyclopropylmethyl)sulfonyl)phenyl)ethyl)acetamide], for which the results for the half-inhibitory concentration (IC50) (in assay [1]; at RORγ LBD-GST tagged) were 0.242 µM and 0.014 µM, respectively.

As for `CC(C)Oc1ccccc1-c1c(Cl)cc2nc(C(O)c3ccc(S(=O)(=O)CC4CC4)cc3)[nH]c2c1Cl` (stereo not drawn) [Example 133, (4-((cyclopropylmethyl)sulfonyl)phenyl)(5,7-dichloro-6-(2-isopropoxyphenyl)-1H-benzo[d]imidazol-2-yl)methanol], the values for the IC50 (in assay [1]; at RORγ LBD-GST tagged) were 0.027 µM and 0.024 µM, respectively.

Regarding `CC(C)Oc1ccccc1-c1c(Cl)cc2nc(C(CO)c3ccc(S(=O)(=O)CC4CC4)cc3)[nH]c2c1Cl` (stereo not drawn) [Example 134, 2-(4-((cyclopropylmethyl)sulfonyl)phenyl)-2-(5,7-dichloro-6-(2-isopropoxyphenyl)-1H-benzo[d]imidazol-2-yl)ethanol], the results for the IC50 (in assay [1]; at RORγ LBD-GST tagged) were 0.003 µM and 0.006 µM, respectively.

In the case of `COc1ccccc1-c1c(Cl)cc2nc(C(CO)c3ccc(S(=O)(=O)CC4CC4)cc3)[nH]c2c1Cl` (stereo not drawn) [Example 135, 2-(4-((cyclopropylmethyl)sulfonyl)phenyl)-2-(5,7-dichloro-6-(2-methoxyphenyl)-1H-benzo[d]imidazol-2-yl)ethanol], the IC50 in assay [1] amounted to 0.014 µM; against RORγ LBD-GST tagged it was 0.039 µM.

`CCOc1ccccc1-c1c(Cl)cc2nc(Cc3ccc(S(=O)(=O)CC4CC4)cc3)[nH]c2c1Cl` [Example 136, 5,7-dichloro-2-(4-((cyclopropylmethyl)sulfonyl)benzyl)-6-(2-ethoxyphenyl)-1H-benzo[d]imidazole]: the results for the IC50 (in assay [1]; on RORγ LBD-GST tagged) were 0.014 µM and 0.005 µM, respectively.

For `CCOc1ccccc1-c1c(Cl)cc2nc(C(CO)c3ccc(S(=O)(=O)CC4CC4)cc3)[nH]c2c1Cl` (stereo not drawn) [Example 137, 2-(4-((cyclopropylmethyl)sulfonyl)phenyl)-2-(5,7-dichloro-6-(2-ethoxyphenyl)-1H-benzo[d]imidazol-2-yl)ethanol], the IC50 in assay [1] is 0.004 µM; at RORγ LBD-GST tagged it was 0.013 µM.

For the compound `CCOc1ccccc1-c1c(Cl)cc2nc(C(O)c3ccc(S(=O)(=O)CC4CC4)cc3)[nH]c2c1Cl` (stereo not drawn) [Example 138, (4-((cyclopropylmethyl)sulfonyl)phenyl)(5,7-dichloro-6-(2-ethoxyphenyl)-1H-benzo[d]imidazol-2-yl)methanol], the IC50 in assay [1] was found to be 0.009 µM; on RORγ LBD-GST tagged, 0.018 µM.

For `NC(=O)CC(c1ccc(S(=O)(=O)CC2CC2)cc1)c1nc2cc(Cl)c(-c3ccccc3OC(F)F)cc2[nH]1` (stereo not drawn) [Example 141, 3-(5-chloro-6-(2-(difluoromethoxy)phenyl)-1H-benzo[d]imidazol-2-yl)-3-(4-((cyclopropylmethyl)sulfonyl)phenyl)propanamide], the IC50 in assay [1] was determined as 0.02 µM; against RORγ LBD-GST tagged, 0.01 µM.

Consider `O=S(=O)(CC1CC1)c1ccc(C(CCO)c2nc3cc(Cl)c(-c4ccccc4OC(F)F)cc3[nH]2)cc1` (stereo not drawn) [Example 142, 3-(5-chloro-6-(2-(difluoromethoxy)phenyl)-1H-benzo[d]imidazol-2-yl)-3-(4-((cyclopropylmethyl)sulfonyl)phenyl)propan-1-ol], for which the IC50 in assay [1] was determined as 0.028 µM; against RORγ LBD-GST tagged it was 0.013 µM.

Take `CC(C)Oc1ccccc1-c1cc2nc(C(CC(N)=O)c3ccc(S(=O)(=O)CC4CC4)cc3)[nH]c2cc1Cl` (stereo not drawn) [Example 143, 3-(5-chloro-6-(2-isopropoxyphenyl)-1H-benzo[d]imidazol-2-yl)-3-(4-((cyclopropylmethyl)sulfonyl)phenyl)propanamide]: the IC50 in assay [1] turned out to be 0.027 µM; on RORγ LBD-GST tagged, 0.01 µM.

For the compound `CC(C)Oc1ccccc1-c1cc2nc(C(CCO)c3ccc(S(=O)(=O)CC4CC4)cc3)[nH]c2cc1Cl` (stereo not drawn) [Example 144, 3-(5-chloro-6-(2-isopropoxyphenyl)-1H-benzo[d]imidazol-2-yl)-3-(4-((cyclopropylmethyl)sulfonyl)phenyl)propan-1-ol], the IC50 in assay [1] turned out to be 0.023 µM; against RORγ LBD-GST tagged it was 0.011 µM.

With `CCS(=O)(=O)c1ccc(C(CCO)c2nc3c(Cl)c(N4CCC(F)(F)CC4)c(Cl)cc3[nH]2)cc1` (stereo not drawn) [Example 145, 3-(4,6-dichloro-5-(4,4-difluoropiperidin-1-yl)-1H-benzo[d]imidazol-2-yl)-3-(4-(ethylsulfonyl)phenyl)propan-1-ol], the IC50 was 0.01 µM in assay [1] and 0.068 µM on RORγ LBD-GST tagged.

Regarding `NC(=O)CC(c1ccc(S(=O)(=O)CC2CC2)cc1)c1nc2cc(Cl)c(N3CCC(F)(F)CC3)c(Cl)c2[nH]1` (stereo not drawn) [Example 154, 3-(4-((cyclopropylmethyl)sulfonyl)phenyl)-3-(5,7-dichloro-6-(4,4-difluoropiperidin-1-yl)-1H-benzo[d]imidazol-2-yl)propanamide], the values for the IC50 (in assay [1]; against RORγ LBD-GST tagged) were 0.077 µM and 0.049 µM, respectively.

Consider `O=S(=O)(CC1CC1)c1ccc(C(CCO)c2nc3cc(Cl)c(N4CCC(F)(F)CC4)c(Cl)c3[nH]2)cc1` (stereo not drawn) [Example 157, 3-(4-((cyclopropylmethyl)sulfonyl)phenyl)-3-(5,7-dichloro-6-(4,4-difluoropiperidin-1-yl)-1H-benzo[d]imidazol-2-yl)propan-1-ol], for which the IC50 in assay [1] turned out to be 0.022 µM; at RORγ LBD-GST tagged it was 0.007 µM.

As to `NC(=O)CC(c1ccc(S(=O)(=O)CC2CC2)cc1)c1nc2cc(Cl)c(-c3ccccc3OC(F)F)c(Cl)c2[nH]1` (stereo not drawn) [Example 158, 3-(4-((cyclopropylmethyl)sulfonyl)phenyl)-3-(5,7-dichloro-6-(2-(difluoromethoxy)phenyl)-1H-benzo[d]imidazol-2-yl)propanamide], the results for the 50% inhibitory concentration (IC50) (in assay [1]; on RORγ LBD-GST tagged) were 0.187 µM and 0.005 µM, respectively.

Regarding `O=S(=O)(CC1CC1)c1ccc(C(CCO)c2nc3cc(Cl)c(-c4ccccc4OC(F)F)c(Cl)c3[nH]2)cc1` (stereo not drawn) [Example 159, 3-(4-((cyclopropylmethyl)sulfonyl)phenyl)-3-(5,7-dichloro-6-(2-(difluoromethoxy)phenyl)-1H-benzo[d]imidazol-2-yl)propan-1-ol], the IC50 in assay [1] came out at 0.01 µM; against RORγ LBD-GST tagged it was 0.005 µM.

Turning to `O=S(=O)(CC1CC1)c1ccc(C(CCN2CCOCC2)c2nc3cc(Cl)c(N4CCC(F)(F)CC4)c(Cl)c3[nH]2)cc1` (stereo not drawn) [Example 170, 4-(3-(4-((cyclopropylmethyl)sulfonyl)phenyl)-3-(5,7-dichloro-6-(4,4-difluoropiperidin-1-yl)-1H-benzo[d]imidazol-2-yl)propyl)morpholine], the IC50 in assay [1] turned out to be 0.43 µM; against RORγ LBD-GST tagged it was 0.71 µM.

For the origin of these results see patent US12187684B2, “Benzimidazole derivatives as modulators of retinoid-related orphan receptor gamma (RORγ) and pharmaceutical use thereof” (Jiangsu Hengrui Medicine Co., Ltd., priority 2018, dated 2025).
